Assay results from the supplement of paper PMC11451515.

Tested on: SEM cells
Test: cell viability relative to DMSO control; higher = less cytotoxic
Details: 48 h
How it was run: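 Library compounds in DMSO were pin-dosed in an 11-point threefold series (47 μM to 0.79 nM) onto leukemia cells in 1536-well plates (5 μl). Plates held 500 cells/well of NOMO1 or SEM or 1000 cells/well of P12-Ichikawa, each adapted for at least four passages in each medium. Luminescence was read with CellTiter-Glo One after 48 h at 37°C. Viability means the per-plate percentage relative to DMSO wells, using cell-free wells as background.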

[1] = HPLM + 10% dialyzed FBS, 0.000781 µM
[2] = HPLM + 10% dialyzed FBS, 0.00234 µM
[3] = HPLM + 10% dialyzed FBS, 0.00702 µM
[4] = HPLM + 10% dialyzed FBS, 0.0211 µM
[5] = HPLM + 10% dialyzed FBS, 0.0632 µM
[6] = HPLM + 10% dialyzed FBS, 0.19 µM
[7] = HPLM + 10% dialyzed FBS, 0.569 µM
[8] = HPLM + 10% dialyzed FBS, 1.71 µM
[9] = HPLM + 10% dialyzed FBS, 5.12 µM
[10] = HPLM + 10% dialyzed FBS, 15.4 µM
[11] = HPLM + 10% dialyzed FBS, 46.1 µM
[12] = RPMI 5 mM glucose + 10% FBS, 0.000781 µM
[13] = RPMI 5 mM glucose + 10% FBS, 0.00234 µM
[14] = RPMI 5 mM glucose + 10% FBS, 0.00702 µM
[15] = RPMI 5 mM glucose + 10% FBS, 0.0211 µM
[16] = RPMI 5 mM glucose + 10% FBS, 0.0632 µM
[17] = RPMI 5 mM glucose + 10% FBS, 0.19 µM
[18] = RPMI 5 mM glucose + 10% FBS, 0.569 µM
[19] = RPMI 5 mM glucose + 10% FBS, 1.71 µM
[20] = RPMI 5 mM glucose + 10% FBS, 5.12 µM
[21] = RPMI 5 mM glucose + 10% FBS, 15.4 µM
[22] = RPMI 5 mM glucose + 10% FBS, 46.1 µM
[23] = RPMI 5 mM glucose + 10% dialyzed FBS, 0.000781 µM
[24] = RPMI 5 mM glucose + 10% dialyzed FBS, 0.00234 µM
[25] = RPMI 5 mM glucose + 10% dialyzed FBS, 0.00702 µM
[26] = RPMI 5 mM glucose + 10% dialyzed FBS, 0.0211 µM
[27] = RPMI 5 mM glucose + 10% dialyzed FBS, 0.0632 µM
[28] = RPMI 5 mM glucose + 10% dialyzed FBS, 0.19 µM
[29] = RPMI 5 mM glucose + 10% dialyzed FBS, 0.569 µM
[30] = RPMI 5 mM glucose + 10% dialyzed FBS, 1.71 µM
[31] = RPMI 5 mM glucose + 10% dialyzed FBS, 5.12 µM
[32] = RPMI 5 mM glucose + 10% dialyzed FBS, 15.4 µM
[33] = RPMI 5 mM glucose + 10% dialyzed FBS, 46.1 µM

SMILES | cell viability [1] | cell viability [2] | cell viability [3] | cell viability [4] | cell viability [5] | cell viability [6] | cell viability [7] | cell viability [8] | cell viability [9] | cell viability [10] | cell viability [11] | cell viability [12] | cell viability [13] | cell viability [14] | cell viability [15] | cell viability [16] | cell viability [17] | cell viability [18] | cell viability [19] | cell viability [20] | cell viability [21] | cell viability [22] | cell viability [23] | cell viability [24] | cell viability [25] | cell viability [26] | cell viability [27] | cell viability [28] | cell viability [29] | cell viability [30] | cell viability [31] | cell viability [32] | cell viability [33]
O=S(=O)([O-])CCS.[Na+] | 96.5% | 104% | 100% | 96.9% | 113% | 113% | 122% | 107% | 100% | 116% | 107% | 101% | 102% | 89.6% | 124% | 107% | 115% | 109% | 124% | 112% | 123% | 122% | 109% | 104% | 108% | 108% | 114% | 137% | 130% | 135% | 121% | 137% | 155%
Cc1cn([C@H]2C=C[C@@H](CO)O2)c(=O)[nH]c1=O | 88.9% | 106% | 104% | 124% | 114% | 99.6% | 109% | 130% | 127% | 112% | 103% | 89.5% | 110% | 109% | 108% | 110% | 107% | 117% | 110% | 104% | 126% | 106% | 91.2% | 93.9% | 104% | 112% | 118% | 96.4% | 107% | 125% | 116% | 104% | 74.2%
COc1cc(CCc2cc(NC(=O)c3ccc(N4C[C@@H](C)N[C@@H](C)C4)cc3)n[nH]2)cc(OC)c1 | 109% | 125% | 131% | 128% | 127% | 52% | 85.8% | 77% | 64.4% | 29.8% | 18% | 111% | 113% | 117% | 123% | 96.1% | 47.8% | 80.7% | 66.2% | 63.5% | 29.7% | 19.5% | 122% | 122% | 124% | 125% | 101% | 52.1% | 96.2% | 87.7% | 64.1% | 31.6% | 18.5%
O=C(Nc1nnc(-c2ccco2)o1)c1cc(-c2ccccc2)nc2ccccc12 | 87.5% | 96.5% | 96.3% | 95% | 91.5% | 110% | 95.3% | 106% | 103% | 93% | 4.54% | 92.6% | 75.1% | 95.6% | 79.7% | 104% | 95.6% | 98.2% | 85% | 41.3% | 5.04% | 2.95% | 91.8% | 94.2% | 104% | 101% | 107% | 109% | 99% | 95.3% | 106% | 77.8% | 3.49%
CC[C@@H]1[C@@H](C)O[C@@](O)([C@@H](C)[C@H](O)[C@H](C)[C@H]2OC(=O)/C=C/C=C/[C@H](C)[C@@H]([C@@H](C)[C@@H](O)[C@H](C)[C@@]3(O)C[C@@H](O[C@H]4C[C@H](O)[C@H](O)[C@H](C)O4)[C@H](CC)[C@@H](C)O3)OC(=O)/C=C/C=C/[C@@H]2C)C[C@H]1O[C@H]1C[C@H](O)[C@H](O)[C@H](C)O1 | 98.9% | 114% | 115% | 104% | 130% | 113% | 105% | 101% | 6.3% | 29.3% | 5.37% | 113% | 106% | 125% | 101% | 109% | 114% | 101% | 88.9% | 7.21% | 11.6% | 4.01% | 112% | 121% | 108% | 118% | 113% | 128% | 92.3% | 77.1% | 7.23% | 19% | 4.96%
Cc1cc(O)c2c(c1)C(=O)c1cccc(O)c1C2=O | 99.4% | 121% | 126% | 100% | 122% | 133% | 135% | 135% | 116% | 70.5% | 71.6% | – | – | – | – | – | – | – | – | – | – | – | 117% | 111% | 124% | 109% | 137% | 140% | 134% | 110% | 123% | 81.2% | 64.7%
CC\12CCC(=O)\C=C1CCC3C2CCC4(C)C3CCC4(O)C#C (configuration not stated) | 105% | 104% | 105% | 99.9% | 113% | 102% | 103% | 117% | 91.1% | 94.9% | 90.5% | 107% | 92.2% | 99.2% | 102% | 94.5% | 106% | 95.7% | 95.8% | 70.7% | 100% | 99% | 112% | 105% | 98.3% | 113% | 117% | 102% | 113% | 98.5% | 97.3% | 106% | 99.9%
NC(=O)Nc1sc(-c2ccc(F)cc2)cc1C(N)=O | 99.3% | 113% | 115% | 110% | 96.7% | 125% | 119% | 103% | 90.5% | 61.7% | 18.3% | – | – | – | – | – | – | – | – | – | – | – | 112% | 116% | 117% | 103% | 125% | 109% | 106% | 97.2% | 75.1% | 55.9% | 11%
